Common to all, as to assay: AK assay 384-well format, Prestwick library screening
For one assay, the system named is P. aeruginosa. The assay is classed as cell-based, Pseudomonas aeruginosa. Conditions: 50 μM final drug concentration; for fold induction at 50 µM: Pseudomonas aeruginosa, 3 h.
Assay [1] deals with S. aureus strain USA300-0114. Format: cell-based, Staphylococcus aureus. Conditions: 50 μM final drug concentration; for fold induction at 50 µM: Staphylococcus aureus, USA300, 3 h.
The subject of another assay is E. faecium. The assay is classed as cell-based, Enterococcus faecium. To be noted: 50 μM final drug concentration; for fold induction at 50 µM: Enterococcus faecium, 3 h.
For another assay, the system named is E. coli. Format: cell-based, Escherichia coli. Conditions: for fold induction at 50 µM: Escherichia coli, 3 h.
Assay [2] concerns A. baumannii strain 98-37-09. The assay is classed as cell-based, Acinetobacter baumannii. Conditions: 50 μM final drug concentration; for fold induction at 50 µM: Acinetobacter baumannii, 983709, 3 h.
In another assay the test system is E. cloacae. The assay is classed as cell-based, Enterobacter cloacae. To be noted: 50 μM final drug concentration; for fold induction at 50 µM: Enterobacter cloacae, 3 h.
The next assay deals with K. pneumoniae. Format: cell-based, Klebsiella pneumoniae. Conditions: 50 μM final drug concentration; for fold induction at 50 µM: Klebsiella pneumoniae, 3 h.
The mark [3] stands for this setting: cutoff for positive-scoring molecules 3-fold increase.
[4] abbreviates: 50 μM final drug concentration, cutoff for positive-scoring molecules 3-fold increase.

Structures can show the parent of a compound that is named as a salt. Where two headings read alike, the source gives them in different places.

With `NS(=O)(=O)c1cc2c(cc1Cl)NC(C(Cl)Cl)NS2(=O)=O` (centres unmarked) [Trichlormethiazide], the fold induction at 50 µM in the assay with P. aeruginosa (planktonic, cutoff for positive-scoring molecules 3-fold increase, read-out: AK-based Prestwick Library Screening Results, P. aeruginosa (fold increase in extracellular AK activity)) came to 0.8; in assay [1] (planktonic, cutoff for positive-scoring molecules 3-fold increase, read-out: AK-based Prestwick Library Screening Results, S. aureus (fold increase in extracellular AK activity)), 1.3; with E. faecium (planktonic, cutoff for positive-scoring molecules 3-fold increase, read-out: AK-based Prestwick Library Screening Results, E. faecium (fold increase in extracellular AK activity)) it was 1.4; in the assay on E. coli (50 μM final drug concentration, planktonic, cutoff for positive-scoring molecules 3-fold increase, read-out: AK-based Prestwick Library Screening Results, E. coli (fold increase in extracellular AK activity)), 0.8; in assay [2] (planktonic, cutoff for positive-scoring molecules 3-fold increase, read-out: AK-based Prestwick Library Screening Results, A. baumannii (fold increase in extracellular AK activity)), 1; in the assay on E. cloacae (planktonic, cutoff for positive-scoring molecules 3-fold increase, read-out: AK-based Prestwick Library Screening Results, E. cloacae (fold increase in extracellular AK activity)), 1.2. Besides, in the assay on K. pneumoniae (planktonic, cutoff for positive-scoring molecules 3-fold increase, read-out: AK-based Prestwick Library Screening Results, K. pneumoniae (fold increase in extracellular AK activity)), the fold induction at 50 µM came to 0.8.
For `CC[N+](CC)(CC)CCC(O)(c1ccccc1)C1CCCCC1.[Cl-]` (centres unmarked) [Tridihexethyl chloride], in the assay on P. aeruginosa (setting [3]), the “AK-based Prestwick Library Screening Results, P. aeruginosa (fold increase in extracellular AK activity)” value is on record as 0.4. In addition, the “AK-based Prestwick Library Screening Results, S. aureus (fold increase in extracellular AK activity)” value in assay [1] (setting [3]) is 0.4. Besides, the “AK-based Prestwick Library Screening Results, E. faecium (fold increase in extracellular AK activity)” value with E. faecium (setting [3]) came out at 0.8. Moreover, in the assay on E. coli (setting [4]), the “AK-based Prestwick Library Screening Results, E. coli (fold increase in extracellular AK activity)” value was determined as 0.4. In addition, in assay [2] (setting [3]), the “AK-based Prestwick Library Screening Results, A. baumannii (fold increase in extracellular AK activity)” value was 0.4. Besides, the “AK-based Prestwick Library Screening Results, E. cloacae (fold increase in extracellular AK activity)” value in the assay with E. cloacae (setting [3]) turned out to be 0.3. The “AK-based Prestwick Library Screening Results, K. pneumoniae (fold increase in extracellular AK activity)” value with K. pneumoniae (setting [3]) was 0.4.
Consider `CN1CCN(CCCN2c3ccccc3Sc3ccc(C(F)(F)F)cc32)CC1` [Trifluoperazine dihydrochloride], for which the fold induction at 50 µM is 1.4 in the assay on P. aeruginosa (planktonic P. aeruginosa, 384-well, cutoff for positive-scoring molecules 3-fold increase, read-out: AK-based Prestwick Library Screening Results: P. aeruginosa (increase in extracellular AK activity)); 1.2 in assay [1] (planktonic S. aureus, 384-well, cutoff for positive-scoring molecules 3-fold increase, read-out: AK-based Prestwick Library Screening Results: S. aureus (increase in extracellular AK activity)); 1.1 in the assay with E. faecium (planktonic E. faecium, 384-well, cutoff for positive-scoring molecules 3-fold increase, read-out: AK-based Prestwick Library Screening Results: E. faecium (increase in extracellular AK activity)); 1.7 with E. coli (planktonic E. coli, 50 μM final drug concentration, 384-well, cutoff for positive-scoring molecules 3-fold increase, read-out: AK-based Prestwick Library Screening Results: E. coli (increase in extracellular AK activity)); 3.4 in assay [2] (planktonic A. baumannii, 384-well, cutoff for positive-scoring molecules 3-fold increase, read-out: AK-based Prestwick Library Screening Results: A. baumannii (increase in extracellular AK activity)); 1.3 in the assay on E. cloacae (planktonic E. cloacae, 384-well, cutoff for positive-scoring molecules 3-fold increase, read-out: AK-based Prestwick Library Screening Results: E. cloacae (increase in extracellular AK activity)). Moreover, in the assay with K. pneumoniae (planktonic K. pneumoniae, 384-well, cutoff for positive-scoring molecules 3-fold increase, read-out: AK-based Prestwick Library Screening Results: K. pneumoniae (increase in extracellular AK activity)), the fold induction at 50 µM is 1.5.
`CN(C)CCCN1c2ccccc2Sc2ccc(C(F)(F)F)cc21` [Triflupromazine hydrochloride]: the fold induction at 50 µM in the assay with P. aeruginosa (planktonic P. aeruginosa, 384-well, […], read-out: AK-based Prestwick Library Screening Results: P. aeruginosa (increase in extracellular AK activity)) is 1; in assay [1] (planktonic S. aureus, 384-well, […], read-out: AK-based Prestwick Library Screening Results: S. aureus (increase in extracellular AK activity)) it was 1.1; in the assay on E. faecium (planktonic E. faecium, 384-well, […], read-out: AK-based Prestwick Library Screening Results: E. faecium (increase in extracellular AK activity)), 0.9; with E. coli (read-out: AK-based Prestwick Library Screening Results: E. coli (increase in extracellular AK activity)) it was 1.1; in assay [2] (planktonic A. baumannii, 384-well, […], read-out: AK-based Prestwick Library Screening Results: A. baumannii (increase in extracellular AK activity)), 1.5; with E. cloacae (planktonic E. cloacae, 384-well, […], read-out: AK-based Prestwick Library Screening Results: E. cloacae (increase in extracellular AK activity)), 1.6. Moreover, the fold induction at 50 µM in the assay on K. pneumoniae (planktonic K. pneumoniae, 384-well, […], read-out: AK-based Prestwick Library Screening Results: K. pneumoniae (increase in extracellular AK activity)) was determined as 1.
Consider `O=c1[nH]c(=O)n([C@H]2C[C@H](O)[C@@H](CO)O2)cc1C(F)(F)F` [Trifluridine], for which the fold induction at 50 µM with P. aeruginosa (planktonic P. aeruginosa, […], read-out: AK-based Prestwick library screening result, P. aeruginosa (fold increase in extracellular AK activity)) is 0.6; in assay [1] (planktonic S. aureus, […], read-out: AK-based Prestwick library screening result, S. aureus (fold increase in extracellular AK activity)), 0.7; in the assay with E. faecium (planktonic E. faecium, […], read-out: AK-based Prestwick library screening result, E. faecium (fold increase in extracellular AK activity)), 0.9; in the assay on E. coli (planktonic E. coli, 50 μM final drug concentration, […], read-out: AK-based Prestwick library screening result, E. coli (fold increase in extracellular AK activity)), 0.9; in assay [2] (planktonic A. baumannii, […], read-out: AK-based Prestwick library screening result, A. baumannii (fold increase in extracellular AK activity)), 1.1; in the assay on E. cloacae (planktonic E. cloacae, […], read-out: AK-based Prestwick library screening result, E. cloacae (fold increase in extracellular AK activity)), 0.7. Also, the fold induction at 50 µM with K. pneumoniae (planktonic K. pneumoniae, […], read-out: AK-based Prestwick library screening result, K. pneumoniae (fold increase in extracellular AK activity)) is 1.1.
As to `CC(=O)Oc1cc(C(F)(F)F)ccc1C(=O)O` [Triflusal], the fold induction at 50 µM with P. aeruginosa (planktonic, […], read-out: AK-based Prestwick Library Screening Results, P. aeruginosa (fold increase in extracellular AK activity)) turned out to be 1.2; in assay [1] (planktonic, […], read-out: AK-based Prestwick Library Screening Results, S. aureus (fold increase in extracellular AK activity)), 1.4; with E. faecium (planktonic, […], read-out: AK-based Prestwick Library Screening Results, E. faecium (fold increase in extracellular AK activity)) it was 1; in the assay on E. coli (50 μM final drug concentration, planktonic, […], read-out: AK-based Prestwick Library Screening Results, E. coli (fold increase in extracellular AK activity)), 1.2; in assay [2] (planktonic, […], read-out: AK-based Prestwick Library Screening Results, A. baumannii (fold increase in extracellular AK activity)), 1; in the assay with E. cloacae (planktonic, […], read-out: AK-based Prestwick Library Screening Results, E. cloacae (fold increase in extracellular AK activity)) it was 1.3. Moreover, the fold induction at 50 µM in the assay on K. pneumoniae (planktonic, […], read-out: AK-based Prestwick Library Screening Results, K. pneumoniae (fold increase in extracellular AK activity)) amounted to 0.9.
As to `C[n+]1cccc(C(=O)[O-])c1` [Trigonelline], the fold induction at 50 µM with P. aeruginosa (planktonic P. aeruginosa, cutoff for positive-scoring molecules 3-fold increase, read-out: AK-based Prestwick Library Screening Results, P. aeruginosa (increase in extracellular AK activity)) is 0.8; in assay [1] (planktonic S. aureus, cutoff for positive-scoring molecules 3-fold increase, read-out: AK-based Prestwick Library Screening Results, S. aureus (increase in extracellular AK activity)), 0.8; in the assay on E. faecium (planktonic E. faecium, cutoff for positive-scoring molecules 3-fold increase, read-out: AK-based Prestwick Library Screening Results, E. faecium (increase in extracellular AK activity)), 0.9; with E. coli (planktonic E. coli, 50 μM final drug concentration, cutoff for positive-scoring molecules 3-fold increase, read-out: AK-based Prestwick Library Screening Results, E. coli (increase in extracellular AK activity)), 0.9; in assay [2] (planktonic A. baumannii, cutoff for positive-scoring molecules 3-fold increase, read-out: AK-based Prestwick Library Screening Results, A. baumannii (increase in extracellular AK activity)), 0.9; with E. cloacae (planktonic E. cloacae, cutoff for positive-scoring molecules 3-fold increase, read-out: AK-based Prestwick Library Screening Results, E. cloacae (increase in extracellular AK activity)), 1.2. In addition, in the assay with K. pneumoniae (planktonic K. pneumoniae, cutoff for positive-scoring molecules 3-fold increase, read-out: AK-based Prestwick Library Screening Results, K. pneumoniae (increase in extracellular AK activity)), the fold induction at 50 µM came to 0.7.
Consider `Cl.OC(CCN1CCCCC1)(c1ccccc1)C1CCCCC1` (centres unmarked) [Trihexyphenidyl-D,L Hydrochloride], for which the “AK-based Prestwick Library Screening Results, P. aeruginosa (fold increase in extracellular AK activity)” value in the assay with P. aeruginosa (setting [3]) was found to be 1.3. For the same molecule, the “AK-based Prestwick Library Screening Results, S. aureus (fold increase in extracellular AK activity)” value in assay [1] (setting [3]) came to 1.4. Moreover, the “AK-based Prestwick Library Screening Results, E. faecium (fold increase in extracellular AK activity)” value in the assay with E. faecium (setting [3]) was 1.1. Besides, the “AK-based Prestwick Library Screening Results, E. coli (fold increase in extracellular AK activity)” value with E. coli (setting [4]) stood at 1.2. The “AK-based Prestwick Library Screening Results, A. baumannii (fold increase in extracellular AK activity)” value in assay [2] (setting [3]) was 1.4. Also, in the assay with E. cloacae (setting [3]), the “AK-based Prestwick Library Screening Results, E. cloacae (fold increase in extracellular AK activity)” value turned out to be 1.5. The “AK-based Prestwick Library Screening Results, K. pneumoniae (fold increase in extracellular AK activity)” value in the assay with K. pneumoniae (setting [3]) came to 1.1.

The record behind these values is patent US10004701B2, “Methods and compositions for treating infection” (UNIVERSITY OF ROCHESTER, priority 2012, dated 2018).
